Source: patent US7452688B2, “Transformed cell with enhanced sensitivity to antifungal compound and use thereof” (Sumitomo Chemical Company, Limited, priority 2002, dated 2008)

Columns and labels:
[1] = tested on: transformed budding yeast AH22-FoOS1; assay: Antifungal compound sensitivity test, transformed budding yeast AH22-FoOS1 (Example 13); format: cell-based, Saccharomyces cerevisiae; details: 30° C. 26.5 hours, relative value in percentage
Method: The transformed budding yeast AH22-FoOS1 prepared in Example 12 was cultured while shaking at 30° C. for 18 hours in a Glu-Leu medium. As a control, the AH22 strain was similarly cultured while shaking at 30° C. for 18 hours in a Glu medium. The absorbance at 600 nm of each grown transformed budding yeast in a cell suspension was measured, and cell suspension diluted with sterilized distilled water to the absorbance of 0.1 was prepared. Further, a cell suspension in which the aforementioned cell suspension of the transformed budding yeast AH22-FoOS1 was diluted 50-fold with a Glu-Leu medium, and a cell suspension in which the aforementioned cell suspension of the AH22 strain was diluted 50-fold with a Glu medium were prepared.
A solution in which each of Compounds (1) to (3) was dissolved in dimethylsulfoxide (DMSO) to the concentration of 600 ppm, a solution in which each of Compounds (4) and (5) was dissolved in dimethylsulfoxide (DMSO) to the concentration of 2000 ppm, and a solution in which Compounds (6) and (7) was dissolved in dimethylsulfoxide (DMSO) to the concentration of 20 ppm were prepared, and two microplates were prepared in which each 1.0 μL per well of the Compound solution and DMSO as a control were dispensed. In one microplate among them, each. 100 μL of cell suspensions of the transformed budding yeast AH22-FoOS1 which had been prepared by dilution as described above was dispensed, and cultured by allowing to stand at 30° C. for 26.5 hours. In another microplate, each 100 μL of cell suspensions of the control yeast AH22 strain which had been prepared by dilution as described above was dispensed, and cultured by allowing to stand at 30° C. for 24.5 hours. After culturing, the absorbance at 600 nm of each well was measured with a microplate reader.
(§1) A degree of growth of the transformed budding yeast is expressed as a relative value in percentage, letting the absorbance at 600 nm at the concentration of the Compound of 0 ppm to be 100. It was confirmed that an inhibiting degree of growth of the transformed budding yeast TM182-FoOS1 by each test substance was grater than an inhibiting degree of growth of the transformed budding yeast AH22-FoOS1 by each test substance, and the transformed budding yeast TM182-FoOS1 was a transformed cell with the enhanced sensitivity to an antifungal compound as compared with the transformed budding yeast AH22-FoOS1.

[2] = tested on: transformed budding yeast TM182-RsOS1; assay: Antifungal compound sensitivity test of transformed budding yeast TM182-RsOS1 (Example 19); format: cell-based, Saccharomyces cerevisiae; details: for Degree of growth of budding yeast TM182-RsOS1 Gal-Ura-Leu medium: control medium, 30° C. 42.5 hours; for Degree of growth of budding yeast TM182-RsOS1 Gul-Ura-Leu medium: 30° C. 26.8 hours
Method: Similarly, the transformed budding yeast TM182-RsOS1 prepared in Example 18 was cultured at 30° C. for 18 hours in a Glu-Ura-Leu medium. The absorbance at 600 nm of the grown transformed budding yeast in a cell suspension was measured, and a cell suspension diluted with sterilized distilled water to the absorbance of 0.1 was prepared. Further, a cell suspension in which the transformed budding yeast TM182-RsOS1 was diluted 50-fold with a Glu-Ura-Leu medium. As a control, the transformed budding yeast TM182-RsOS1 was cultured at 30° C. for 18 hours in a Gal-Ura-Leu medium. The absorbance at 600 nm of the grown transformed budding yeast in a cell suspension was measured, and a cell suspension diluted with sterilized distilled water to the absorbance of 0.1 was prepared. Further, a cell suspension in which the transformed budding yeast TM182-RsOS1 was diluted 50-fold with a Gal-Ura-Leu medium.
A solution in which each of Compounds (1) to (5) was dissolved in dimethylsulfoxide (DMSO) to the concentration of 600 ppm, and a solution in which each of Compounds (6) and (7) was dissolved in dimethylsulfoxide (DMSO) to the concentration of 60 ppm were prepared, and two microplates were prepared in which each 2.0 μL per well of the Compound-DMSO solution and DMSO as a control were dispensed into 2 wells. In one microplate among them, each 100 μL of cell suspensions of the transformed budding yeast TM182-RsOS1 which had been prepared by dilution with a Glu-Ura-Leu medium as described above was dispensed, and cultured by allowing to stand at 30° C. for 26.8 hours. In another microplate, as described above, as a control, each 100 μL of cell suspensions of the transformed budding yeast TM182-RsOS1 which had been prepared by dilution with a Gal-Ura-Leu medium was dispensed, and cultured at 30° C. for 42.5 hours. After culturing the absorbance at 600 nm of each well was measured with a microplate reader.
as §1, with “TM182-RsOS1” for “TM182-FoOS1”, “AH22-RsOS1” for “AH22-FoOS1”, “AH22-RsOS1.” for “AH22-FoOS1.”

Row | Structure (SMILES) | Degree of growth of budding yeast AH22-FoOS1 Glu-Leu medium ([1]; final concentration 6 ppm) [%] | Degree of growth of budding yeast TM182-RsOS1 Gal-Ura-Leu medium ([2]; final concentration 6.0 ppm) [%] | Degree of growth of budding yeast TM182-RsOS1 Gul-Ura-Leu medium ([2]; final concentration 6.0 ppm) [%] | Degree of growth of budding yeast AH22-FoOS1 Glu-Leu medium ([1]; final concentration 20 ppm) [%] | Degree of growth of budding yeast AH22-FoOS1 Glu-Leu medium ([1]; final concentration 0.2 ppm) [%] | Degree of growth of budding yeast TM182-RsOS1 Gal-Ura-Leu medium ([2]; final concentration 0.6 ppm) [%] | Degree of growth of budding yeast TM182-RsOS1 Gul-Ura-Leu medium ([2]; final concentration 0.6 ppm) [%]
1 | CC12CC1(C)C(=O)N(c1cc(Cl)cc(Cl)c1)C2=O (stereo not drawn) [Compound (1), Procymidone] | 81 | 108 | 15 | – | – | – | –
2 | CC(C)NC(=O)N1CC(=O)N(c2cc(Cl)cc(Cl)c2)C1=O [Compound (2), Iprodione] | 91 | 96 | 11 | – | – | – | –
3 | C=CC1(C)OC(=O)N(c2cc(Cl)cc(Cl)c2)C1=O (stereo not drawn) [Compound (3), Vinclozolin] | 86 | 101 | 27 | – | – | – | –
4 | O=[N+]([O-])c1c(Cl)c(Cl)c(Cl)c(Cl)c1Cl [Compound (4), Quintozene] | – | 88 | 17 | 90 | – | – | –
5 | COP(=S)(OC)Oc1c(Cl)cc(C)cc1Cl [Compound (5), Tolclofos-methyl] | – | 101 | 9 | 71 | – | – | –
6 | N#Cc1c[nH]cc1-c1cccc2c1OC(F)(F)O2 [Compound (6), Fludioxonil] | – | – | – | – | 69 | 100 | 12
7 | N#Cc1c[nH]cc1-c1cccc(Cl)c1Cl [Compound (7), Fenpiclonil] | – | – | – | – | 88 | 99 | 31
